According to PubChem BioAssay (NCI):
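Assay format: 96-well plates, 48-hour exposure. TGI is the concentration that stops growth completely.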

Experiments:
Experiment in all cases: growth of human tumour cells (NCI), 48 h
[1] = system: NCI-H226 lung
[2] = system: HOP-92 NSCLC
[3] = system: SK-OV-3 ovarian
[4] = system: NCI-H23 lung
[5] = system: A498 renal
[6] = system: UACC-62 melanoma
[7] = system: DU-145 prostate
[8] = system: NCI-H522 lung
[9] = system: MOLT-4 leukemia
[10] = system: SF-539 CNS
[11] = system: M14 melanoma
[12] = system: HT29 colon
[13] = system: SNB-75 CNS
[14] = system: SF-295 CNS
[15] = system: U251 CNS
[16] = system: CCRF-CEM leukemia
[17] = system: IGROV1 ovarian
[18] = system: OVCAR-3 ovarian
[19] = system: OVCAR-4 ovarian
[20] = system: MDA-MB-231 breast

Row | Compound | TGI [1] [µM] | TGI [2] [µM] | TGI [3] [µM] | TGI [4] [µM] | TGI [5] [µM] | TGI [6] [µM] | TGI [7] [µM] | TGI [8] [µM] | TGI [9] [µM] | TGI [10] [µM] | TGI [11] [µM] | TGI [12] [µM] | TGI [13] [µM] | TGI [14] [µM] | TGI [15] [µM] | TGI [16] [µM] | TGI [17] [µM] | TGI [18] [µM] | TGI [19] [µM] | TGI [20] [µM]
1 | Cc1c2c(c(C)n1-c1ccccc1)C(=O)N(CCCCN1CCN(c3ccccc3)CC1)C2=O | 40.3 | 46.3 | > 100 | 48.5 | 69 | 36.8 | > 100 | 39.4 | 26.2 | 26.5 | 79.7 | 10.1 | > 100 | 53.7 | 84.9 | 26.1 | > 100 | 88.5 | 82.5 | 24.1
2 | CCC(C#N)(c1ccccc1)N(CCc1ccccc1)C(=O)c1ccccc1 (stereo not given) | 39.7 | 45.2 | 82.7 | > 100 | 79.6 | > 100 | > 100 | > 100 | > 100 | 34.8 | > 100 | > 100 | 78.7 | > 100 | > 100 | > 100 | > 100 | > 100 | 44 | 52.2
3 | Cc1ccc(-c2nc(C)c(C(=O)Nc3ccc(Cl)cc3)s2)cc1 | 48.5 | 70.2 | 45.2 | 83.6 | 41.5 | 45.8 | > 100 | > 100 | > 100 | > 100 | > 100 | > 100 | 28.3 | 33.7 | 48.8 | > 100 | 82.4 | 98.6 | 49.2 | 75.6
4 | Cc1ccc(C2=Nc3cc(C)c(Cl)cc3S(=O)(=O)NN2)cc1 | > 100 | > 100 | > 100 | > 100 | > 100 | > 100 | > 100 | > 100 | > 100 | > 100 | > 100 | > 100 | > 100 | > 100 | > 100 | > 100 | > 100 | > 100 | > 100 | > 100
5 | CC1(C)CC(=O)C(CCC(=O)/C=C/c2ccccc2)C(=O)C1 | > 100 | > 100 | > 100 | > 100 | > 100 | > 100 | > 100 | > 100 | > 100 | > 100 | > 100 | > 100 | > 100 | > 100 | > 100 | > 100 | > 100 | > 100 | > 100 | > 100
6 | CC(=O)ON(C(C)=O)c1ccc(-c2nc3ccccc3s2)cc1 | 27.7 | > 81.6 | > 100 | > 90.8 | > 67.2 | 48.7 | > 77.1 | 30.7 | 49.3 | 29.4 | 64 | 52.4 | > 89.9 | > 76.4 | > 60.9 | > 100 | 36.9 | 66.7 | > 100 | > 91.5
7 | CC(C)(C)OC(=O)NCCCCC(N)C(N)=O (stereo not given) | > 100 | > 100 | > 100 | > 100 | > 100 | > 100 | > 100 | > 100 | > 100 | > 100 | > 100 | > 100 | > 100 | > 100 | > 100 | > 100 | > 100 | > 100 | > 100 | > 100
8 | CC(=O)OC1=c2ccccc2=C(O)C2C1C=NN2C(C)=O (stereo not given) | > 100 | > 100 | > 100 | > 100 | > 100 | > 100 | > 100 | > 100 | > 100 | > 100 | > 100 | > 100 | > 100 | > 100 | > 100 | > 100 | > 100 | > 100 | > 100 | > 100
9 | CC1(C)[C@H](C(=O)O)N2C(=O)[C@@H](NS(=O)(=O)c3ccc([N+](=O)[O-])cc3)[C@H]2S1(=O)=O | > 100 | > 100 | > 100 | > 100 | > 100 | > 100 | > 100 | > 100 | > 100 | > 100 | > 100 | > 100 | > 100 | > 100 | > 100 | > 100 | > 100 | > 100 | > 100 | > 100
10 | CO/N=C(\C)c1ccc(Nc2c3ccccc3nc3occc23)cc1 | 28.5 | 42 | 17.2 | 26.4 | 9.94 | 16.3 | 10.3 | 0.311 | 33.5 | 2.28 | 9.59 | 2.16 | 3.29 | 1.98 | 10.9 | 35.9 | 12.4 | 2.85 | 7.58 | 10.2
11 | O=P1(C(O)/C=C/c2ccccc2)N(Cc2ccccc2)[C@H](c2ccccc2)[C@@H](c2ccccc2)N1Cc1ccccc1 (stereo not given in full) | > 100 | > 68.9 | > 81.8 | > 59.2 | > 100 | > 100 | > 100 | 59.2 | > 100 | > 100 | > 100 | > 86.3 | > 83.6 | > 64.4 | > 100 | > 92.6 | > 44.6 | > 93.1 | > 100 | 69.7
12 | NNC(=O)CSc1nc2ccc(I)cc2c(=O)n1Cc1ccccc1 | 41.9 | 57 | 32.7 | 74.7 | 33.2 | 40.4 | > 100 | 30.7 | 45.3 | 52 | 40.4 | 44.8 | 50.4 | 53.7 | 40.8 | 19 | 69.3 | 54.9 | 71.2 | 34.1
13 | CCOC(=O)CN1C(=O)c2c(c(C)n(-c3ccccc3)c2C)C1=O | > 100 | > 100 | > 100 | > 100 | > 100 | > 100 | > 100 | > 100 | > 100 | > 100 | > 100 | > 100 | > 100 | > 100 | > 100 | > 100 | > 100 | > 100 | > 100 | > 100
14 | NCCSc1nc2ccccc2s1 | 92.9 | 71 | 79.7 | > 100 | 90.7 | > 100 | > 100 | 75.7 | 94.8 | 37.6 | > 100 | > 100 | 62.1 | 73.2 | 48.3 | > 100 | > 100 | > 100 | > 100 | > 100
15 | O=C(O)c1ccccc1NC(c1ccccc1)c1ccc2cccnc2c1O (stereo not given) | > 28.5 | > 100 | > 100 | > 53 | > 100 | > 50 | > 100 | 23.3 | 34 | 22.1 | 38.8 | > 100 | > 86.7 | > 100 | 21.8 | > 22.7 | > 100 | 14.4 | 34.6 | > 62.4
16 | CCOC(=O)c1cnn2c1ncc1c(=O)n(NC(N)=O)ccc12 | > 100 | > 100 | > 100 | > 100 | > 100 | > 100 | > 100 | > 100 | > 100 | > 100 | > 100 | > 100 | > 100 | > 100 | > 100 | > 100 | > 100 | > 100 | > 100 | > 100
17 | C=CCN1CCC(OC(=O)C(O)(C#CC)C2CCCC2)CC1 (stereo not given) | > 100 | > 100 | > 100 | > 100 | > 100 | > 100 | > 100 | > 100 | > 100 | > 100 | > 100 | > 100 | > 100 | > 100 | > 100 | > 100 | > 100 | > 100 | > 100 | > 100
18 | O=C(CN1CCN(Cc2ccccc2)CC1)c1ccc2[nH]c(=O)oc2c1 | > 100 | > 100 | > 100 | > 100 | > 100 | > 100 | > 100 | > 100 | > 100 | > 100 | > 100 | > 100 | > 100 | > 100 | > 100 | > 100 | > 100 | > 100 | > 100 | > 100
